{"source": "paper PMC6345968", "about": "“Structural basis for species-selective targeting of Hsp90 in a pathogenic fungus” (Nature Communications, 2019)", "key": {"Hsp90 in HEPG2 lysate": {"test_system": "Hsp90 in HEPG2 lysate", "details": "for FP signal: raw"}, "[1]": {"biological_target": "T1, Hsp90 in C. albicans (SC5314) lysate (Candida albicans, UniProt P46598)", "T1 construct": "endogenous in cells; host or cells: C. albicans SC5314 whole-cell lysate", "T1 sequence (P46598 whole entry)": "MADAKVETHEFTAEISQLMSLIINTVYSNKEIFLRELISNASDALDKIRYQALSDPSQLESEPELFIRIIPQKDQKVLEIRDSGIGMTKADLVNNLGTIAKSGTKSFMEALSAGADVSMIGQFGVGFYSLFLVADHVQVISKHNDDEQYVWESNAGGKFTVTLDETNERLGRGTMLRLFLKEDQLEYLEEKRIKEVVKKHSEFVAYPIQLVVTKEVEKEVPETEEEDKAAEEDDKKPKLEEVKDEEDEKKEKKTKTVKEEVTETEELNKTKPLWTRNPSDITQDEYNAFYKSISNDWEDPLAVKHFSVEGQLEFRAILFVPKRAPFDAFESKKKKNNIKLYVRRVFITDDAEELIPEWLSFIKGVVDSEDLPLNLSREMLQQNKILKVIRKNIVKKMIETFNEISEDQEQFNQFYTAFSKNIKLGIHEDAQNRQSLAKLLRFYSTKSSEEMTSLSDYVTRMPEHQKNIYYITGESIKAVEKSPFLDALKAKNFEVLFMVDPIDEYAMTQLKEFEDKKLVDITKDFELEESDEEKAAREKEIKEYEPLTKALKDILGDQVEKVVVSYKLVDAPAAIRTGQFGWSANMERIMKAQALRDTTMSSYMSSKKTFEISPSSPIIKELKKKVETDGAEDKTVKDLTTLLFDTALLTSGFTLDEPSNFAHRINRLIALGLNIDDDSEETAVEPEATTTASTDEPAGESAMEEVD", "experiment": "biochemical", "type": "binding", "details": "for FP signal: raw"}, "[2]": {"details": "SC5314 lysate, 0.457 nM compound"}, "[3]": {"details": "SC5314 lysate, 1.372 nM compound"}, "[4]": {"details": "SC5314 lysate, 4.115 nM compound"}, "[5]": {"details": "SC5314 lysate, 12.346 nM compound"}, "[6]": {"details": "SC5314 lysate, 37.037 nM compound"}, "[7]": {"details": "SC5314 lysate, 111.111 nM compound"}, "[8]": {"details": "SC5314 lysate, 333.333 nM compound"}, "[9]": {"details": "SC5314 lysate, 1000 nM compound"}, "[10]": {"details": "SC5314 lysate, 3000 nM compound"}}, "note": "Like-named read-outs stand apart in the source and are kept apart here.", "data": [{"smiles": "CCON=C1/C=C/C=C\\[C@H]2O[C@H]2C[C@@H](C)OC(=O)c2c(O)cc(O)c(Cl)c2C1", "note": "[compound 333]", "values": [{"measurement": "Ratio rel. GdA (HepG2)", "setting": "Hsp90 in HEPG2 lysate; EC50 / EC50 of GdA in HepG2 lysate", "value": 0.3573}, {"measurement": "Ratio rel. GdA (HepG2)", "setting": "Hsp90 in HEPG2 lysate; EC50 relative to GdA, HEPG2 lysate", "value": 0.3573}, {"measurement": "FP signal, Fxn Control", "setting": "Hsp90 in HEPG2 lysate; HEPG2 lysate, log concentration 0.137354 (1.372 nM)", "value": 0.9198}, {"measurement": "FP signal, Fxn Control", "setting": "Hsp90 in HEPG2 lysate; HEPG2 lysate, log concentration 0.61437 (4.115 nM)", "value": 0.7075}, {"measurement": "FP signal, Fxn Control", "setting": "Hsp90 in HEPG2 lysate; HEPG2 lysate, log concentration 1.09153 (12.346 nM)", "value": 0.5047}, {"measurement": "FP signal, Fxn Control", "setting": "Hsp90 in HEPG2 lysate; HEPG2 lysate, log concentration 1.56864 (37.037 nM)", "value": 0.3066}, {"measurement": "FP signal, Fxn Control", "setting": "Hsp90 in HEPG2 lysate; HEPG2 lysate, log concentration 2.04576 (111.111 nM)", "value": 0.2075}, {"measurement": "FP signal, Fxn Control", "setting": "Hsp90 in HEPG2 lysate; HEPG2 lysate, log concentration 2.52288 (333.333 nM)", "value": 0.1651}, {"measurement": "FP signal, Fxn Control", "setting": "Hsp90 in HEPG2 lysate; HEPG2 lysate, log concentration 3 (1000 nM)", "value": 0.184}, {"measurement": "FP signal, Fxn Control", "setting": "Hsp90 in HEPG2 lysate; HEPG2 lysate, log concentration 3.47712 (3000 nM)", "value": 0.2028}, {"measurement": "FP signal, Fxn Control", "setting": "Hsp90 in HEPG2 lysate; HEPG2 lysate, log concentration -0.340084 (0.457 nM)", "value": 0.9575}, {"measurement": "FP signal (raw)", "setting": "Hsp90 in HEPG2 lysate; HepG2 lysate, 0.457 nM", "value": 203}, {"measurement": "FP signal", "setting": "Hsp90 in HEPG2 lysate; HepG2 lysate, 0.457 nM compound", "value": 203}, {"measurement": "FP signal (raw)", "setting": "Hsp90 in HEPG2 lysate; HepG2 lysate, 1.372 nM", "value": 195}, {"measurement": "FP signal", "setting": "Hsp90 in HEPG2 lysate; HepG2 lysate, 1.372 nM compound", "value": 195}, {"measurement": "FP signal (raw)", "setting": "Hsp90 in HEPG2 lysate; HepG2 lysate, 4.115 nM", "value": 150}, {"measurement": "FP signal", "setting": "Hsp90 in HEPG2 lysate; HepG2 lysate, 4.115 nM compound", "value": 150}, {"measurement": "FP signal (raw)", "setting": "Hsp90 in HEPG2 lysate; HepG2 lysate, 12.346 nM", "value": 107}, {"measurement": "FP signal", "setting": "Hsp90 in HEPG2 lysate; HepG2 lysate, 12.346 nM compound", "value": 107}, {"measurement": "FP signal (raw)", "setting": "Hsp90 in HEPG2 lysate; HepG2 lysate, 37.037 nM", "value": 65}, {"measurement": "FP signal", "setting": "Hsp90 in HEPG2 lysate; HepG2 lysate, 37.037 nM compound", "value": 65}, {"measurement": "FP signal (raw)", "setting": "Hsp90 in HEPG2 lysate; HepG2 lysate, 111.111 nM", "value": 44}, {"measurement": "FP signal", "setting": "Hsp90 in HEPG2 lysate; HepG2 lysate, 111.111 nM compound", "value": 44}, {"measurement": "FP signal (raw)", "setting": "Hsp90 in HEPG2 lysate; HepG2 lysate, 333.333 nM", "value": 35}, {"measurement": "FP signal", "setting": "Hsp90 in HEPG2 lysate; HepG2 lysate, 333.333 nM compound", "value": 35}, {"measurement": "FP signal (raw)", "setting": "Hsp90 in HEPG2 lysate; HepG2 lysate, 1000 nM", "value": 39}, {"measurement": "FP signal", "setting": "Hsp90 in HEPG2 lysate; HepG2 lysate, 1000 nM compound", "value": 39}, {"measurement": "FP signal (raw)", "setting": "Hsp90 in HEPG2 lysate; HepG2 lysate, 3000 nM", "value": 43}, {"measurement": "FP signal", "setting": "Hsp90 in HEPG2 lysate; HepG2 lysate, 3000 nM compound", "value": 43}, {"measurement": "EC50", "setting": "Hsp90 in HEPG2 lysate; HepG2 lysate, oxime panel experiment 220817", "value": 7.93, "unit": "nM"}, {"measurement": "Ratio re. GdA", "setting": "[1]; EC50 relative to GdA, SC5314 lysate", "value": 0.3152}, {"measurement": "FP signal (raw)", "setting": "[1]; SC5314 lysate, 0.457 nM", "value": 168}, {"measurement": "FP signal relative to 0 nM", "setting": "[1]; [2]", "value": 0.8317}, {"measurement": "FP signal", "setting": "[1]; [2]", "value": 168}, {"measurement": "FP signal (raw)", "setting": "[1]; SC5314 lysate, 1.372 nM", "value": 155}, {"measurement": "FP signal relative to 0 nM", "setting": "[1]; [3]", "value": 0.7673}, {"measurement": "FP signal", "setting": "[1]; [3]", "value": 155}, {"measurement": "FP signal (raw)", "setting": "[1]; SC5314 lysate, 4.115 nM", "value": 114}, {"measurement": "FP signal relative to 0 nM", "setting": "[1]; [4]", "value": 0.5644}, {"measurement": "FP signal", "setting": "[1]; [4]", "value": 114}, {"measurement": "FP signal (raw)", "setting": "[1]; SC5314 lysate, 12.346 nM", "value": 81}, {"measurement": "FP signal relative to 0 nM", "setting": "[1]; [5]", "value": 0.401}, {"measurement": "FP signal", "setting": "[1]; [5]", "value": 81}, {"measurement": "FP signal (raw)", "setting": "[1]; SC5314 lysate, 37.037 nM", "value": 58}, {"measurement": "FP signal relative to 0 nM", "setting": "[1]; [6]", "value": 0.2871}, {"measurement": "FP signal", "setting": "[1]; [6]", "value": 58}, {"measurement": "FP signal (raw)", "setting": "[1]; SC5314 lysate, 111.111 nM", "value": 39}, {"measurement": "FP signal relative to 0 nM", "setting": "[1]; [7]", "value": 0.1931}, {"measurement": "FP signal", "setting": "[1]; [7]", "value": 39}, {"measurement": "FP signal (raw)", "setting": "[1]; SC5314 lysate, 333.333 nM", "value": 35}, {"measurement": "FP signal relative to 0 nM", "setting": "[1]; [8]", "value": 0.1733}, {"measurement": "FP signal", "setting": "[1]; [8]", "value": 35}, {"measurement": "FP signal (raw)", "setting": "[1]; SC5314 lysate, 1000 nM", "value": 36}, {"measurement": "FP signal relative to 0 nM", "setting": "[1]; [9]", "value": 0.1782}, {"measurement": "FP signal", "setting": "[1]; [9]", "value": 36}, {"measurement": "FP signal (raw)", "setting": "[1]; SC5314 lysate, 3000 nM", "value": 35}, {"measurement": "FP signal relative to 0 nM", "setting": "[1]; [10]", "value": 0.1733}, {"measurement": "FP signal", "setting": "[1]; [10]", "value": 35}, {"measurement": "EC50", "setting": "[1]; SC5314 lysate, not normalized, oxime panel experiment 220817, read-out: EC50", "value": 5.36, "unit": "nM"}, {"measurement": "HepG2/SC5314", "setting": "[1]; ratio of GdA-normalized EC50s, human over fungal lysate", "value": 1.134}, {"measurement": "HepG2/SC5314", "setting": "[1]; ratio of GdA-relative EC50 ratios, HepG2 over SC5314", "value": 1.134}]}]}
